Experiment: acid dissociation constant (pKa) of the conjugate acid of the base component
Settings: water
Description: The pKa of the conjugate acid of the base is the pKa of the cation of the base.

Row | pKa | SMILES
1 | 9.5 | CC(C)CN(CC(C)C)CC(C)C [triisobutylamine]
2 | 7.5 | CCCCN1CCOCC1 [N-butylmorpholine]

Row | SMILES | pKa
3 | CCCCNCCCC [dibutylamine] | 11.3

From patent publication US12469647B2, “Electrolytic capacitor” (Panasonic Intellectual Property Management Co., Ltd., priority 2020, dated 2025)
